From patent US12581252B2, “Substituted pyrrolo[3,4-b]pyridines as PI3K-α inhibitors” (Relay Therapeutics, Inc., priority 2020, dated 2026)

Biological target: H1047R PIK3CA enzyme (Homo sapiens, UniProt P42336, H1047R)
Test: ADP-Glo Biochemical PIK3CA Kinase Assay

Chain of H1047R PIK3CA enzyme (P42336 whole entry H1047R): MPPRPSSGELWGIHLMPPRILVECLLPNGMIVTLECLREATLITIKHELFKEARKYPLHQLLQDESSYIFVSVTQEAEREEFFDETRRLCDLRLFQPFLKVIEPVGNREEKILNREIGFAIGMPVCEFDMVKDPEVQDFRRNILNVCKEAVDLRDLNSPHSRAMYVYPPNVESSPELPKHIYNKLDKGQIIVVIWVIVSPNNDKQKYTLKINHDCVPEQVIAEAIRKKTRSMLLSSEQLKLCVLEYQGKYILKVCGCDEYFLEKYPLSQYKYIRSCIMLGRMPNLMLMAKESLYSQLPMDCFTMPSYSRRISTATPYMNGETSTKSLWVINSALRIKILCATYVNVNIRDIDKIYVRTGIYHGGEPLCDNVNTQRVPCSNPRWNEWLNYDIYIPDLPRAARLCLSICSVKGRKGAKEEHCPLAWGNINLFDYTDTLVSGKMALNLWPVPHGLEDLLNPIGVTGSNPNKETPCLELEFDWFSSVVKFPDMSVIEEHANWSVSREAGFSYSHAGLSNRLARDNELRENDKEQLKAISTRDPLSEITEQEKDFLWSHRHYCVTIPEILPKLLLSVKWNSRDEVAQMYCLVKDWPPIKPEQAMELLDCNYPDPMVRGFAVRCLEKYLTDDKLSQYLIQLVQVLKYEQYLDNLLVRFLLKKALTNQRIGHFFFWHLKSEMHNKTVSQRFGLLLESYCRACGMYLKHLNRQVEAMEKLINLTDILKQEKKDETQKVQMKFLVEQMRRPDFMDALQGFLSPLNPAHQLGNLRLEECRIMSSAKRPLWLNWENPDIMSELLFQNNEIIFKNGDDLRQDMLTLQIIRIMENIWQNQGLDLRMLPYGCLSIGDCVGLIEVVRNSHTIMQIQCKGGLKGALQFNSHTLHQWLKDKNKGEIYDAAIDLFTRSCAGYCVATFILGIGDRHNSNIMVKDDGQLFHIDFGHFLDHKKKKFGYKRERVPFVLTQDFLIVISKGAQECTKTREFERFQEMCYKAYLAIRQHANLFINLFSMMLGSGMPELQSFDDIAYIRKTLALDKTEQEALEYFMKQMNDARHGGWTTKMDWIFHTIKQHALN
Chain of H1047R PIK3CA enzyme (P27986 whole entry partner): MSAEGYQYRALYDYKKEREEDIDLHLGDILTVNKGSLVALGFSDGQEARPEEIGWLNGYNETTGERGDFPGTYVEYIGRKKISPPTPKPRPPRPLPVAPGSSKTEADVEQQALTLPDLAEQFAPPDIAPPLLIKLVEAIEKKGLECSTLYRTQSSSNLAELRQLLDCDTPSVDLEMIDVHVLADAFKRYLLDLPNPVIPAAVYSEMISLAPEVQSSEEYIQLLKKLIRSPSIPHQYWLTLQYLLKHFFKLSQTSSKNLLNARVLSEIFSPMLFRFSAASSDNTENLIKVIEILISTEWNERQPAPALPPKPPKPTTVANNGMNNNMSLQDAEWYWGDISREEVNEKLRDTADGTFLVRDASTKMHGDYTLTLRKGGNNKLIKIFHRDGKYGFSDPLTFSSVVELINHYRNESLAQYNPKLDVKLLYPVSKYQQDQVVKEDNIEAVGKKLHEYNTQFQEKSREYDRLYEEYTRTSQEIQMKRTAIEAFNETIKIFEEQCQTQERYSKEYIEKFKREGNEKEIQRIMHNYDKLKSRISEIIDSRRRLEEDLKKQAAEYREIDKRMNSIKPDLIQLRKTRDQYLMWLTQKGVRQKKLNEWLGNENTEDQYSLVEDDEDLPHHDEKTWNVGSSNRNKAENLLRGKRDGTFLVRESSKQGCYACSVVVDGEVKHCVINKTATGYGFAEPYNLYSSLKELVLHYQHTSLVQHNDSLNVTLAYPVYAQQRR

| IC50 [nM] | Structure (SMILES) |
| --- | --- |
| 1000 to 10000 | O=C1N[C@H](c2cc(F)ccc2Cl)c2c(NC(=O)N3C[C@@H](C(F)F)c4ccccc43)cccc21 (single isomer, unassigned) [Compound I-2331] |
| ≤ 100 | Nc1ncncc1-c1cc(NC(=O)c2cc(F)cc(C(F)(F)F)c2)c2c(c1)C(=O)NC2c1cc(F)ccc1Cl (stereo not shown) [Compound I-1106] |
| ≤ 100 | O=C(Nc1cc(C2=CCOC2)cc2c1C(c1cc(F)ccc1Cl)NC2=O)c1cc(F)cc(C(F)(F)F)c1 (stereo not shown) [Compound I-643] |
| 100 to 500 | COc1ncc(-c2cc(NC(=O)c3cc(F)cc(C(F)(F)F)c3)c3c(c2)C(=O)NC3c2cc(F)ccc2Cl)c(N)n1 (stereo not shown) [Compound I-1151] |
| ≤ 100 | O=C(Nc1cc(CO)cc2c1C(c1cc(F)ccc1Cl)NC2=O)c1cc(F)cc(C(F)(F)F)c1 (stereo not shown) [Compound I-185] |
| ≤ 100 | O=C1NC(c2cc(F)ccc2Cl)c2c(NC(=O)C34CC5CC(C3)CC(C(F)(F)F)(C5)C4)cc(Br)cc21 (stereo not shown) [Compound I-1183] |
| 1000 to 10000 | COc1ccc2scc(C(=O)Nc3cccc4c3C(c3ccccc3C)NC4=O)c2c1 (stereo not shown) [Compound I-42] |
| 10000 to 100000 | O=C1NC(c2cc(F)ccc2Cl)c2c1cc(-c1ccc3ncnn3c1)cc2N(CC(=O)N1CCCCC1)C(=O)C(F)(F)F (stereo not shown) [Compound I-2001] |
| 1000 to 10000 | O=C1NC(c2cc(F)ccc2Cl)c2c(NC(=O)[C@H]3C[C@H](O)C[C@@H](C(F)(F)F)C3)cc(Br)cc21 (stereo partly shown) [Compound I-2080] |
| 500 to 1000 | O=C1NC(c2cc(F)ccc2F)c2c(NC(=O)c3csc4ccccc34)ccnc21 (stereo not shown) [Compound I-71] |
| 1000 to 10000 | O=C1N[C@H](c2cc(F)ccc2Cl)c2c(NC(=O)N3C[C@](O)(C(F)(F)F)c4cc(F)ccc43)cccc21 (single isomer, unassigned) [Compound I-2516] |
| 10000 to 100000 | Cc1ccccc1[C@@H]1NC(=O)c2nccc(NC(=O)N3C[C@@H](C)c4ccccc43)c21 (single isomer, unassigned) [Compound I-303] |
| ≤ 100 | O=C(Nc1cc(CS(=O)(=O)N2CCC2)cc2c1C(c1cc(F)ccc1Cl)NC2=O)c1cc(F)cc(C(F)(F)F)c1 (stereo not shown) [Compound I-1399] |
| 10000 to 100000 | O=C(Nc1cc(Br)cc2c1C(c1cc(F)ccc1Cl)NC2=O)c1cncc(F)c1 (stereo not shown) [Compound I-958] |
| 10000 to 100000 | Cc1cc(=O)[nH]cc1C(=O)Nc1cc(Br)cc2c1[C@@H](c1cc(F)ccc1Cl)NC2=O [Compound I-2107] |
| ≤ 100 | O=C1NC(c2cc(F)ccc2Cl)c2c(NC(=O)N3CCc4ccccc43)cc(Br)cc21 (stereo not shown) [Compound I-309] |
| 500 to 1000 | O=C(Nc1cc(-c2ccc3ncnn3c2)cc2c1[C@@H](c1cc(F)ccc1Cl)NC2=O)c1cc(F)cc(C(F)(F)F)c1 (single isomer, unassigned) [Compound I-943] |
| 10000 to 100000 | N#Cc1cc(F)cc(C(=O)Nc2ccnc3c2C(c2ccccc2Cl)NC3=O)c1 (stereo not shown) [Compound I-235] |
| 10000 to 100000 | O=C(Nc1cc(Br)cc2c1C(c1cc(F)ccc1Cl)NC2=O)c1ccc2nncn2c1 (stereo not shown) [Compound I-637] |
| 10000 to 100000 | CCN(C(=O)Nc1cccc2c1C(c1cc(F)ccc1Cl)NC2=O)c1ccc(F)cc1 (stereo not shown) [Compound I-2434] |
| 100 to 500 | O=C(Nc1cc(/N=C2\OC[C@@H]3CCCN23)cc2c1C(c1cc(F)ccc1Cl)NC2=O)c1cc(F)cc(C(F)(F)F)c1 (stereo partly shown) [Compound I-2355] |

| IC50 [nM] | Structure (SMILES) |
| --- | --- |
| 1000 to 10000 | O=C1NC(c2cc(F)ccc2Cl)c2c1cc(-c1ccc3ncnn3c1)cc2S(=O)(=O)Cc1ccccc1 (stereo not shown) [Compound I-1742] |
| 500 to 1000 | O=C(Nc1cc(Cc2ccc3c(c2)CCNC3=O)cc2c1[C@@H](c1cc(F)ccc1Cl)NC2=O)c1cc(F)cc(C(F)(F)F)c1 [Compound I-1625] |
| ≤ 100 | N#CCOc1cc(NC(=O)c2cc(F)cc(C(F)(F)F)c2)c2c(c1)C(=O)N[C@H]2c1cc(F)ccc1Cl [Compound I-1888] |
| 10000 to 100000 | COC(=O)C1CN(C(=O)Nc2cccc3c2C(c2cc(F)ccc2Cl)NC3=O)c2ccccc21 (stereo not shown) [Compound I-2317] |
| 1000 to 10000 | CN(C)c1cc(NC(=O)N2C[C@@](O)(C(F)(F)F)c3cc(F)ccc32)c2c(n1)C(=O)N[C@H]2c1cc(F)ccc1Cl (single isomer, unassigned) [Compound I-2691] |
| 1000 to 10000 | O=C1N[C@H](c2cc(F)ccc2Cl)c2c(NC(=O)N3C[C@](O)(C(F)F)c4cc(F)ccc43)cc(F)cc21 (single isomer, unassigned) [Compound I-2634] |
| 100 to 500 | O=C(Nc1cc(-c2cnn(C(F)F)c2)cc2c1C(c1cc(F)cc(F)c1)NC2=O)c1cc(F)cc(F)c1 (stereo not shown) [Compound I-2161] |
| 1000 to 10000 | O=C(Nc1cc(-c2ccc3ncnn3c2)cc2c1[C@@H](c1cc(F)ccc1Cl)NC2=O)c1cc(F)c(F)c(Cl)c1 (stereo in doubt) [Compound I-1174] |
| 1000 to 10000 | O=C(Nc1cc(Br)cc2c1C(c1cc(F)ccc1Cl)NC2=O)c1ccc(C(F)(F)F)s1 (stereo not shown) [Compound I-1427] |
| 1000 to 10000 | O=C(CC1(C(F)(F)F)CC1)Nc1cc(-c2ccc3ncnn3c2)cc2c1C(c1cc(F)ccc1Cl)NC2=O (stereo not shown) [Compound I-2044] |
| 1000 to 10000 | CN(C)S(=O)(=O)Cc1cc(NC(=O)c2cc(F)cc(C(F)(F)F)c2)c2c(c1)C(=O)N[C@@H]2c1cc(F)ccc1Cl [Compound I-1488] |
| ≤ 100 | Cn1ncc(-c2cc(NC(=O)c3cc(F)cc(C(F)(F)F)c3)c3c(c2)C(=O)N[C@H]3c2cc(F)ccc2Cl)c1C#N [Compound I-1795] |
| 10000 to 100000 | O=C1NC(c2cc(F)ccc2Cl)c2c(NC3CCCS(=O)(=O)C3)cc(-c3ccc4ncnn4c3)cc21 (stereo not shown) [Compound I-2078] |
| 500 to 1000 | O=C(Nc1cc(Br)cc2c1C(c1cc(F)ccc1Cl)NC2=O)c1cc(Cl)c(Cl)s1 (stereo not shown) [Compound I-1384] |
| 1000 to 10000 | O=C1N[C@H](c2cc(F)ccc2Cl)c2c(NC(=O)N3C[C@](O)(C(F)(F)F)c4cc(F)ccc43)cc(N3CCCC3=O)cc21 (single isomer, unassigned) [Compound I-2666] |
| 1000 to 10000 | O=C1N[C@H](c2cc(F)ccc2Cl)c2c(NC(=O)N3C[C@](O)(C(F)(F)F)c4cc(F)ccc43)ccnc21 (single isomer, unassigned) [Compound I-2699] |
| 10000 to 100000 | Cc1ccc2c(c1)N(C(=O)Nc1cccc3c1CN(C)C3=O)CC2 [Compound I-405] |
| 1000 to 10000 | O=C(Nc1cc(Br)cc2c1C(c1cc(F)ccc1Cl)NC2=O)c1cc(O)cc(F)c1 (stereo not shown) [Compound I-1283] |
| 100 to 500 | O=C(Nc1cnc(-c2cn[nH]c2)c2c1C(c1cc(F)ccc1Cl)NC2=O)c1cc(F)cc(C(F)(F)F)c1 (stereo not shown) [Compound I-287] |
| 10000 to 100000 | O=C1NC(c2cc(F)ccc2Cl)c2c(CN3CCCCC3=O)cc(-c3ccc4ncnn4c3)cc21 (stereo not shown) [Compound I-1999] |
| 1000 to 10000 | O=C1N[C@@H](c2cc(F)ccc2Cl)c2c(NC(=O)N3C[C@](O)(C(F)(F)F)c4cc(F)ccc43)cccc21 (single isomer, unassigned) [Compound I-2515] |

| IC50 [nM] | Structure (SMILES) |
| --- | --- |
| 10000 to 100000 | O=C1CCC[C@H]([C@@H]2NC(=O)c3cccc(NC(=O)c4cc(F)cc(C(F)(F)F)c4)c32)C1 (single isomer, unassigned) [Compound I-2254] |
| 1000 to 10000 | CC(=O)Nc1cc(NC(=O)N2C[C@@](O)(C(F)(F)F)c3cc(F)ccc32)c2c(c1)C(=O)N[C@@H]2c1cc(F)ccc1Cl (single isomer, unassigned) [Compound I-2575] |
| 10000 to 100000 | O=C(Nc1cccc2c1C(c1cc(F)ccc1Cl)NC2=O)c1cc(F)cc(B(O)O)c1 (stereo not shown) [Compound I-2087] |
| ≤ 100 | O=C(Nc1cc(Br)cc2c1[C@H](c1c(F)cccc1Cl)NC2=O)c1cc(F)cc(C(F)(F)F)c1 [Compound I-680] |
| 10000 to 100000 | O=C1NC(c2cc(F)ccc2Cl)c2c(NC(=O)C3CC4(C3)CC4(F)F)cc(Br)cc21 (stereo not shown) [Compound I-1634] |
| 10000 to 100000 | CC(N1C[C@H](O)C[C@H]1C(=O)Nc1cccc2c1C(c1cc(F)ccc1Cl)NC2=O)C(F)(F)F (mixture of isomers) [Compound I-2407] |
| 100 to 500 | COc1ccnc(Oc2cc(NC(=O)c3cc(F)cc(C(F)(F)F)c3)c3c(c2)C(=O)NC3c2cc(F)ccc2Cl)n1 (stereo not shown) [Compound I-1143] |
| ≤ 100 | Cc1ccccc1C1NC(=O)c2cc(CC(C)C)cc(NC(=O)c3cc(F)cc(C(F)(F)F)c3)c21 (stereo not shown) [Compound I-268] |
| ≤ 100 | CC(C)(O)COc1cc(NC(=O)c2cc(F)cc(C(F)(F)F)c2)c2c(c1)C(=O)N[C@H]2c1cc(F)ccc1Cl [Compound I-740] |
| 10000 to 100000 | O=C(Nc1cccc2c1C(c1cc(F)ccc1Cl)NC2=O)c1ncc(Br)s1 (stereo not shown) [Compound I-2112] |
| 100 to 500 | Cc1ccc(F)cc1C1NC(=O)c2cccc(NC(=O)c3cc(F)cc(C(F)(F)F)c3)c21 (stereo not shown) [Compound I-281] |
| 10000 to 100000 | O=C(Nc1cccc2c1[C@H](C1CC1)NC2=O)c1cc(F)cc(C(F)(F)F)c1 (single isomer, unassigned) [Compound I-2221] |
| 1000 to 10000 | O=C(Nc1cccc2c1C(c1ccccc1)NC2=O)c1cc(F)cc(C(F)(F)F)c1 (stereo not shown) [Compound I-1805] |
| 1000 to 10000 | O=C1N[C@@H](c2cc(F)ccc2Cl)c2c(NC(=O)N3CC[C@H]4CCCC[C@H]43)cccc21 [Compound I-2422] |
| 100 to 500 | Cc1ccccc1C1NC(=O)Oc2cccc(NC(=O)c3csc4ccccc34)c21 (stereo not shown) [Compound I-294] |
| ≤ 100 | CCC(N)(CC)c1cc(NC(=O)c2cc(F)cc(C(F)(F)F)c2)c2c(c1)C(=O)NC2c1cc(F)ccc1Cl (stereo not shown) [Compound I-554] |
| 10000 to 100000 | CC#Cc1cc(-c2ccc3ncnn3c2)cc2c1C(c1cc(F)ccc1Cl)NC2=O (stereo not shown) [Compound I-1988] |
| 10000 to 100000 | O=C1NC(c2cc(F)ccc2Cl)c2c(NC(=O)C3CCCN(CC(F)(F)F)C3)cc(-c3ccc4ncnn4c3)cc21 (single isomer, unassigned) [Compound I-1964] |
| ≤ 100 | O=C(Nc1cc(Br)cc2c1C(c1cc(F)c(F)cc1Cl)NC2=O)c1cc(F)cc(C(F)(F)F)c1 (stereo not shown) [Compound I-678] |
| 100 to 500 | O=C1NC(c2ccccc2)c2c(NC(=O)c3csc4ccccc34)cccc21 (stereo not shown) [Compound I-8] |

| Structure (SMILES) | IC50 [nM] |
| --- | --- |
| N#Cc1c(-c2cc(NC(=O)c3cc(F)cc(Cl)c3)c3c(c2)C(=O)N[C@@H]3c2cc(F)ccc2Cl)ccc2ncnn12 [Compound I-2064] | ≤ 100 |
| O=C(Nc1cc(OS(=O)(=O)F)cc2c1C(c1cc(F)ccc1Cl)NC2=O)c1cc(F)cc(C(F)(F)F)c1 (stereo not shown) [Compound I-483] | ≤ 100 |
